# According to patent US11985977B2, “Use of composition as a growth promotant for plants” (UENME Global Pty LTD, priority 2018, dated 2024):
# Legend:
# [1] = tested on: insects, annelids, crustaceans, molluscs, arachnids, birds and animals; assay: Observed effect on other small organisms, birds and animals; format: in vivo; conditions: TMT diluted with water as in the embodiments and examples
# Source text: The LD-50 for the rat is 2× the body mass of the rat, so it would drown before dying by ingestion.
# Pithium = assay: Similar laboratory study on Pithium from avocado and Eucalyptus; format: cell-based; conditions: similar TMT aqueous solutions; pathogens found on avocado and Eucalyptus
# [2] = tested on: native bloodwood (Eucalyptus) trees; assay: Bloodwood trees, bark and soil drench (Example 3); format: in vivo; conditions: 0.03% w/v, three applications drenching bark and surrounding soil; trees appeared to be dying
# Protocol: On 10 Apr. 2017 TMT supplied in a 15% aqueous solution diluted in rainwater at 1 in 500 (10 ml/5 L), namely in 0.03% w/v aqueous solution was first applied by drenching the bark and surrounding soil for each of the three.
# Second and third similar applications of a 0.03% w/v TMT aqueous solution were made to the three trees on 3 June and 27 June respectively.
# [3] = tested on: Phellinus (fungal pathogen); assay: Second mango trial, fungal pathogen (Example 6); format: in vivo; conditions: spraying as in Example 5; Phellinus fruiting bodies under the bark at start
# Phellinus spp. = assay: Contact kill of soil borne fungal pathogens; format: cell-based; conditions: TMT diluted with water
# Source text: (§1) TMT diluted with water kills the soil borne fungal pathogens, Phytothphora cinnamomi, Pithium spp., and Phellinus spp. on contact.
# Pithium spp. = assay: Contact kill of soil borne fungal pathogens; format: cell-based; conditions: TMT diluted with water
# Source text: as §1
# Phytothphora cinnamomi = assay: Contact kill of soil borne fungal pathogens; format: cell-based; conditions: TMT diluted with water
# Source text: as §1
# [4] = tested on: other soil microbes including other pathogens, fungi, bacteria as well as other soil or water borne biota; assay: Toxicity to other soil microbes and biota; conditions: TMT diluted with water
# [5] = tested on: avocado (Persea americana); assay: Avocado orchard soil spray trial (Example 1); format: in vivo
# Protocol: In an avocado (Persea americana) orchard in Queensland, an area of the orchard was selected with poor tree health.
# TMT supplied in a 15% aqueous solution was diluted in collected rainwater at 1 in 400, namely in a 0.0375% w/v aqueous solution, was applied with a fire-fighting pump and sprayed to the soil only beneath two trees. This spraying mimicked a tree sprinkler application and was applied as twenty litres per tree.
# Rhodes grass = Rhodes grass pasture dieback trial (Example 2); format: in vivo; conditions: 0.03% w/v applied 27 Jun. 2017; sample taken 8 Aug., kept in 10 ml rainwater, observed by 28 Aug. 2017; no change on untreated control
# Protocol: On a property near Gin Gin, Queensland a pasture area of Rhodes grass was suffering from “pasture dieback”.
# On 27 Jun. 2017 TMT supplied in a 15% aqueous solution diluted in rainwater at 1 in 500 (10 ml/5 L), namely in a 0.03% w/v aqueous solution was applied to a portion of that pasture area hereinafter referred to as the “treated grass”.
# On 8 Aug. 2017 grass samples were taken from the treated grass (as a test sample) and from the surrounding untreated grass (as a control sample), and each of these grass samples were placed in separate open containers containing 10 ml of rainwater.
# [6] = tested on: Araucaria, Cassia and Bauhinia, Grevillea; assay: Tree trials, spraying; format: in vivo; conditions: 0.03% w/v spray; after a few weeks of spraying
# [7] = tested on: blue grass, couch, Rhodes and turf grasses; assay: Grass trials (die back); format: in vivo
# Protocol: Trials were performed on grazing land, a football field, a house front lawn with controls and on golf course couch greens. In all trials on soil with spray application (50 L/50 m^2) relative to controls with water only or TMT+humate solution applied in zeolite or in biochar+/− TMT and humate, 1 kg/10 m^2 with 40 L of solution/T of absorbent.
# Macadamia tree = Macadamia tree foliar spray, early flowering; format: in vivo
# Source text: On the same property as in Example 8, a Macadamia tree was also foliar sprayed on 28 Jun.
# mango (Mangifera indica) = assay: Mango orchard foliar and stem spray, growth and fruit (Example 5); format: in vivo
# Protocol: TMT supplied in a 15% aqueous solution diluted in rainwater at 1 in 500 (10 ml/5 L), namely in 0.03% w/v aqueous solution was used. These three trees were foliar and stem sprayed (2 litre/tree each time) with the solution, once, twice or three times some two weeks apart.
# Fusarium oxysporum = assay: Banana plantation foliar spray trial (Example 7); format: in vivo; conditions: 0.03% w/v foliar spray, seven affected banana plants (cv Lady Finger); no change in water-sprayed control
# Protocol: On a banana (Musa) plantation in Queensland, banana plants (cv Lady Finger) were identified to be affected with Fusarium oxysporum (an ascomycete fungus). Vascular colourisation was seen where the fungus had colonised. A trial using foliar sprays was used. TMT supplied in a 15% aqueous solution diluted in rainwater at 1 in 500 (10 ml/5 L), namely in 0.03% w/v aqueous solution was used for the foliar spraying of seven affected banana plants.
# Phytophthora = assay: Laboratory study on Phytophthora in avocado soil (Example 4); format: cell-based
# Protocol: Laboratory study on Phytophthora (30 Sep. 2017 onwards to August 2018)
# Crop avocado soil with Phytophthora.
# Treatment TMT supplied in a 15% aqueous solution diluted at 1:500 (10 ml/5 L)
# [8] = tested on: mango trees (cv Kensington Pride); assay: Second mango trial, fruit and tree health (Example 6); format: in vivo, Mangifera indica
# [9] = tested on: hemp, macadamias, grapes, citrus (mandarins) and capsicum; assay: Various other crop trials, spraying; format: in vivo; conditions: 0.03% w/v spray
# [10] = tested on: blue gum, spotted gum, blood wood, lemon scented gum, Moreton Bay ash and Corymbia costata; assay: Additional Eucalypt trials, bark spray; format: in vivo, Eucalypts; conditions: bark sprayed; drought conditions, Phytophthora in the soil
# Protocol: Additional trials were also carried out on Eucalypts other than that described in Example 3.
# Under current drought conditions and the presence of Phytophthora in the soil, all of the additional trees we trialled looked close to death. The bark of all the following trees were sprayed viz. blue gum, spotted gum, blood wood, lemon scented gum, Moreton Bay ash and Corymbia costata.
# [11] = tested on: mango (Mangifera indica) trees (cv Kensington Pride); assay: Mango early flowering and fruiting, foliar spray (Example 8); format: in vivo; conditions: 0.03% w/v
# Protocol: These mango trees are in rocky poor soil, that is not irrigated.
# On 28 Jun. 2019, TMT supplied in a 15% aqueous solution diluted in rainwater at 1 in 500 (10 ml/5 L), namely in 0.03% w/v aqueous solution was applied by foliar spraying.
# [12] = tested on: fungal pathogens Phellinus and Phytophthora; assay: Mango orchard foliar and stem spray, fungal pathogens (Example 5); format: in vivo; conditions: 0.03% w/v, foliar and stem spray 2 litre/tree, once, twice or three times two weeks apart; three mango trees
# Protocol: TMT supplied in a 15% aqueous solution diluted in rainwater at 1 in 500 (10 ml/5 L), namely in 0.03% w/v aqueous solution was used. These three trees were foliar and stem sprayed (2 litre/tree each time) with the solution, once, twice or three times some two weeks apart. The fungal pathogen was killed. The growth response was extraordinary, but in order of the number of sprays. Leaves in both number and size followed suit as did flower spikes and fruit set. Fruit harvested was 10% greater in mass for each additional spray.
# rat = conditions: ingestion; cited from earlier work
# [13] = tested on: Native pine trees (Auracaria spp.); assay: Native pine trees spray; format: in vivo; conditions: sprayed 28 Jun. 2019
# Source text: Native pine trees (Auracaria spp.) of differing varieties, also on the same property as in Example 8, were also sprayed on the 28 Jun.
# Phellinus = assay: Similar laboratory study on Phellinus from avocado and Eucalyptus; format: cell-based; conditions: similar TMT aqueous solutions; pathogens found on avocado and Eucalyptus
# [14] = Growth stimulation by TMT mixed with liquid humate solution and powdered zeolite; format: in vivo; conditions: TMT mixed with a liquid humate solution containing fine powdered zeolite (<40 u)
# [15] = aqueous solution and foliar and stem spraying as in Example 5
# [16] = thirty-six days, without watering or fertilizer since spraying
smiles,measurement,setting,value
"Sc1nc(S)nc(S)n1 [TMT, 1,3,5-Triazinane-2,4,6-Trithione]","effect on other small organisms, birds and animals",[1],benign
same,effect on Pithium in samples,Pithium,appeared to have been killed
same,new shoots and leaf growth,[2],new shoots from branch axils and new leaf growth appeared
same,effect on fungal pathogen,[3],killed
same,kill on contact,Phellinus spp.,kills
same,kill on contact,Pithium spp.,kills
same,kill on contact,Phytothphora cinnamomi,kills
same,toxicity to other soil microbes and biota,[4],not to be toxic
same,indications of new growth,"[5]; 0.0375% w/v aqueous solution, 20 L per tree sprayed to soil beneath two trees, within one week of spraying",marked new growth
same,feeder roots examined,"[5]; 0.0375% w/v, soil spray, about seven and a half months after spraying",healthy feeder roots and earthworms were found
same,growth in size more than the surrounding trees,"[5]; 0.0375% w/v, soil spray, within four months",20-25%
same,appearance of treated trees versus surrounding trees,"[5]; 0.0375% w/v, soil spray, within seven weeks of spraying",significantly different to the surrounding trees
same,shoot and root formation on treated grass sample,Rhodes grass,shoots and roots formed thereon
same,growth of trees showing poor growth,[6],marked improvement with growth
same,"dry matter, mass relative to the control",[7]; 0.03% w/v spray,200% +/−4
same,effect on mite infection,[7]; 0.03% w/v spray,overturned the mite infection
same,treatment of grass die back from Phellinus and Pithium,"[7]; 0.03% w/v spray, range of grass species, cause uncertain due to mealy bug",successful
same,time until dead patches were resolved completely,"[7]; spray 50 L/50 m^2 on grazing land, house front lawn, golf course couch greens, except the football field (chlorinated town water)",10 to 14 days
same,flowering,"Macadamia tree; 0.03% w/v foliar spray 28 Jun. 2019, after about two weeks, normally flowers in late August",came into flower
same,flowering,"Macadamia tree; 0.03% w/v, after three weeks",continued to produce flowers
same,flower maturation and fruit (nut) set,"Macadamia tree; 0.03% w/v, by 3rd August, some thirty-six days after spraying",the flowers have matured and the setting of fruit(nut) has commenced
same,fruit growth,"Macadamia tree; 0.03% w/v, by 28 Sep. 2019, some ninety-six days from spraying",growing apace
same,growth response,"mango (Mangifera indica); 0.03% w/v, foliar and stem spray, one to three sprays, response in order of the number of sprays",extraordinary
same,"fruit harvested, greater in mass for each additional spray","mango (Mangifera indica); 0.03% w/v, foliar and stem spray, per additional spray",10%
same,"leaves in number and size, flower spikes and fruit set","mango (Mangifera indica); 0.03% w/v, one to three sprays, relative to order of number of sprays",followed suit
same,fruit sweetness,mango (Mangifera indica); observed but not measured,sweeter with increased spraying
same,success on killing off the fungus on affected plants,Fusarium oxysporum,100%
same,development of spores that break out of sporangias,Phytophthora; 15% aqueous solution diluted at 1:500,do not develop
same,effect on Phytophthora,"Phytophthora; 15% aqueous solution diluted at 1:500 (10 ml/5 L), avocado soil with Phytophthora",kills and stops lifecycle of Phytophthora
same,brix (sugar content measurement) higher than the control trees,[8]; [15],approximately 10%
same,fruit sweetness,[8]; [15],noticeably sweeter
same,disease and insect predators versus surrounding trees,[8]; spraying as in Example 5,much less disease and fewer insect predators
same,leaves of treated trees versus surrounding trees,[8]; spraying as in Example 5,bigger brighter green leaves
same,frost damage,"[8]; unseasonal frost, nearby unsprayed trees were subject to frost damage",not affected by an unseasonal frost
same,growth of crop plants,[9],improvement of growth
same,response of trees close to death,[10],"slow but consistent response, with epicormic buds appearing on the tree trunks, under the bark and new leaves appearing on apparently dead branches"
same,flowering,"[11]; single foliar spray 28 Jun. 2019, within two weeks, normal flowering end of August",coming into flower
same,flower maturation and fruit set,"[11]; by 3 Aug. 2019, some thirty-six days from spraying","the initiated flowers had matured, and the setting of fruit had commenced"
same,flowering,"[11]; by 18 July, some three weeks after spraying",continue showing flowering
same,fruit growth,"[11]; by 28 Sep. 2019, some ninety-six days from spraying",growing apace
same,new flowering,[11]; [16],abundance of new flowering
same,signs of stress,[11]; [16],not showing any signs of stress
same,effect on fungal pathogen,[12],killed
same,LD-50,rat,2 × the body mass of the rat
same,new growth out of season,[13],gone into new growth
same,effect on Phellinus in samples,Phellinus,appeared to have been killed
same,functionality to stimulate growth,[14],increased synergistically
